According to US20220010279A1, “KITS AND METHODS FOR PERFORMING OPTICAL DYNAMIC CLAMP ON EXCITABLE CELLS” (CORNELL UNIVERSITY, priority 2018, published 2022):

System: iPSC-CMs
Experiment: Paced action potentials (perforated patch clamp; control, EDC or ODC with added IK1) after E-4031 addition
Format: cell-based, human
Settings: for APD90 after E-4031 addition: 500 nM E-4031 perfused 2 minutes, all cells, FIG. 7A
Method: Cor.4U hiPSC-CMs (Axiogenesis, Cologne, Germany) were thawed, seeded, and maintained according to the protocols provided by the manufacturer. The cells were seeded on 0.5% gelatin-coated 8 mm coverslips and plated at 100,000 cells/mL. Cells were incubated for at least 7 days post thaw prior to use for experiments.
Adenoviral vector was constructed using the Addgene (Cambridge, Mass.) plasmid pAAV-CAG-ArchT-GFP, deposited by K. Deisseroth's laboratory (plasmid 20940) (Ambrosi C M, et al. Methods Mol Biol. 2014, 1181:215-28; Yu J, et al. Methods Mol Biol. 2016, 1408:303-17). ArchT was expressed in iPSC-CMs using MOIs of 250-300, as described in previously published protocols using an adenovirus (Ambrosi C M, et al. Methods Mol Biol. 2014, 1181:215-28; Yu J, et al. Methods Mol Biol. 2016, 1408:303-1). Determination of successful infection was confirmed via eGFP fluorescence. Functionality of ArchT was confirmed by illuminating the cells with an LED (M565L3, ThorLabs) at 595 nm through a 40× objective and observing the amount of hyperpolarization of the membrane potential under current clamp. Stability of IArchT was measured with a voltage and light clamp protocol over time to investigate rundown with ArchT illumination (FIGS. 18A-18B).
Borosilicate glass pipettes were pulled to a resistance of 1-3 MΩ using a flaming/brown micropipette puller (Model P-1000, Sutter Instrument). The pipettes were filled with intracellular solution containing (mM) 10 NaCl, 130 KCl, 1 MgCl2, 10 CaCl2, 5.5 Dextrose, 10 HEPES. For perforated patch, the pipette was first backfilled by dipping the pipette tip into the intracellular solution for 10 seconds. Only the very tip contained the intracellular solution without any gramicidin to minimize the amount of gramicidin exiting the pipette prior to obtaining a giga-ohm seal. The pipette was then filled with the intracellular solution containing 8 μg/mL gramicidin passed through a 0.25 μm filter. […] The high calcium concentration in the intracellular pipette solution serves to verify the integrity of the patch as patch rupture under these conditions would lead to immediate cell contracture (Ishihara K, et al. J Physiol. 2004, 540(3):831-41). The coverslips containing iPSC-CMs were placed in the bath and constantly perfused with an extracellular solution at 37° C. containing (mM) 137 NaCl, 5.4 KCl, 1 MgSO4, 2 CaCl2, 10 Dextrose, 10 HEPES. GFP-expressing single cells that were visibly contracting were chosen for experiments. Patch-clamp measurements were made by a patch-clamp amplifier (Model 2400, A-M Systems, Inc) controlled by the Real Time eXperiment Interface (RTXI) to coordinate the amplifier via the data acquisition card (PCI-6025E, National Instruments). The voltage was corrected for the calculated liquid junction potential of −2.8 mV. RTXI was also used to control the LED light intensity. The series resistance was less than 10 MΩ and was not compensated.
To test the feasibility of using ArchT to inject a target current, stimulated action potentials under the EDC system were compared to those of the ODC platform at three different pacing frequencies: 0.5, 1 and 2 Hz. The cells were stimulated 10 times at 0.5, 1 and 2 Hz sequentially under three conditions (the order of which was randomized): (A) control, in which no additional current was added, (B) addition of Itarget with EDC, and (C) and addition of Itarget with ODC.
After the cells had undergone the aforementioned pacing protocol under the same three conditions, 500 nM E-4031 (a class III antiarrhythmic drug that blocks potassium channels, primarily of the human ether-a-go-go related gene (hERG) type) was perfused into the bath containing the coverslip of iPSC-CMs for 2 minutes. Experiments were again conducted under the same pacing protocol and conditions to measure the effect of IKr inhibition. […]

`Cc1cccc(CCN2CCC(C(=O)c3ccc(NS(C)(=O)=O)cc3)CC2)n1` [E-4031] was tested, and the “APD with E-4031 addition” value (500 nM E-4031, example cell 13 paced at 0.5 Hz, control, EDC and ODC conditions, FIG. 6A-C) was “increases”, the “drug-induced APD prolongation, control (without dynamic clamp) cells compared to EDC and ODC” value (500 nM E-4031, paced at 0.5 Hz) was “more dramatic” and the “triangulation (APD90-APD30), control (without dynamic clamp) cells compared to EDC and ODC” value (500 nM E-4031, paced at 0.5 Hz) was “larger”. The “APD90 after E-4031 addition” value (paced at 0.5 Hz, Itarget (IK1) added with EDC) was “increased”, the “APD90 after E-4031 addition” value (paced at 0.5 Hz, Itarget (IK1) added with ODC) was “increased” and the “APD90 after E-4031 addition” value (paced at 0.5 Hz, control (no current addition)) was “increased”.
